# Experimental data taken from PubChem BioAssay AID1919004 (Molecular Pharmacology Branch, DTP, NCI, 2023).
# Test system: 883617-216-R-J1-PDC complex spheroids, growth, % test/control
# Assay: Anticancer human tumor 883617-216-R-J1-PDC patient-derived bladder carcinoma cell line growth inhibition [AhR]
# Details: for IC50: curve of first compound; for viability, T/C: stronger effect = lower value
# Outline: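 Complex tumor spheroids co-cultured with HUVEC and human MSC stroma; AhR antagonists tested in combination with standard-of-care and investigational agents. Top concentration at or near clinical Cmax (else 10 microM), half-log dilutions; growth expressed as percent test/control.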
# [1] = second compound 0.1 µM, first compound 0.0316 µM
# [2] = second compound 0.1 µM, first compound 0.1 µM
# [3] = second compound 0.1 µM, first compound 0.316 µM
# [4] = second compound 0.1 µM, first compound 1 µM
# [5] = second compound 0.1 µM, first compound 3.16 µM
# [6] = second compound 0.1 µM, first compound 10 µM
# [7] = second compound 0.316 µM, first compound 0.0316 µM
# [8] = second compound 0.316 µM, first compound 0.1 µM
# [9] = second compound 0.316 µM, first compound 0.316 µM
# [10] = second compound 0.316 µM, first compound 1 µM
# [11] = second compound 0.316 µM, first compound 3.16 µM
# [12] = second compound 0.316 µM, first compound 10 µM
# [13] = second compound 1 µM, first compound 0.0316 µM
# [14] = second compound 1 µM, first compound 0.1 µM
# [15] = second compound 1 µM, first compound 0.316 µM
# [16] = second compound 1 µM, first compound 1 µM
# [17] = second compound 1 µM, first compound 3.16 µM
# [18] = second compound 1 µM, first compound 10 µM
# [19] = second compound 3.16 µM, first compound 0.0316 µM
# [20] = second compound 3.16 µM, first compound 0.1 µM
# [21] = second compound 3.16 µM, first compound 0.316 µM
# [22] = second compound 3.16 µM, first compound 1 µM
# [23] = second compound 3.16 µM, first compound 3.16 µM
# [24] = second compound 3.16 µM, first compound 10 µM
# [25] = second compound 10 µM, first compound 0.0316 µM
# [26] = second compound 10 µM, first compound 0.1 µM
# [27] = second compound 10 µM, first compound 0.316 µM
# [28] = second compound 10 µM, first compound 1 µM
# [29] = second compound 10 µM, first compound 3.16 µM
# [30] = second compound 10 µM, first compound 10 µM
# 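Further: exposure lasted 7 days after dosing on day 3 of spheroid growth.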
IC50 (second compound 0.1 µM),IC50 (second compound 0.316 µM),IC50 (second compound 1 µM),IC50 (second compound 3.16 µM),IC50 (second compound 10 µM),SMILES,"viability, T/C [1]","viability, T/C [2]","viability, T/C [3]","viability, T/C [4]","viability, T/C [5]","viability, T/C [6]","viability, T/C [7]","viability, T/C [8]","viability, T/C [9]","viability, T/C [10]","viability, T/C [11]","viability, T/C [12]","viability, T/C [13]","viability, T/C [14]","viability, T/C [15]",further results
1570 nM,1730 nM,1370 nM,1530 nM,1580 nM,O=C(C=Cc1cccc(S(=O)(=O)Nc2ccccc2)c1)NO + Cc1ccccc1N=Nc1ccc(NC(=O)c2ccnn2C)c(C)c1,86.6%,80%,77.1%,56.6%,36.6%,2.17%,89.2%,88.1%,77.6%,68%,32%,2.44%,76.7%,96.8%,69.1%,"viability, T/C [16]: 56.8%; viability, T/C [17]: 31.2%; viability, T/C [18]: 1.92%; viability, T/C [19]: 70.9%; viability, T/C [20]: 87.2%; viability, T/C [21]: 73.3%; viability, T/C [22]: 62.9%; viability, T/C [23]: 28.2%; viability, T/C [24]: 1.87%; viability, T/C [25]: 74.6%; viability, T/C [26]: 76.3%; viability, T/C [27]: 68.1%; viability, T/C [28]: 63.1%; viability, T/C [29]: 32%; viability, T/C [30]: 2.57%"
> 10000 nM,> 10000 nM,> 10000 nM,> 10000 nM,> 10000 nM,CC1COCCN1c1cc(C2(S(C)(=N)=O)CC2)nc(-c2ccnc3[nH]ccc23)n1 (stereo not given) + CC(CO)NC(=O)c1cc(-c2ccc(Cl)cc2)nn(-c2cnn(C)c2)c1=O,155%,133%,120%,78.7%,86.9%,108%,73.3%,143%,107%,56.3%,70.1%,72.1%,142%,102%,152%,"viability, T/C [16]: 121%; viability, T/C [17]: 103%; viability, T/C [18]: 77.5%; viability, T/C [19]: 103%; viability, T/C [20]: 94.4%; viability, T/C [21]: 132%; viability, T/C [22]: 132%; viability, T/C [23]: 86.2%; viability, T/C [24]: 66.5%; viability, T/C [25]: 127%; viability, T/C [26]: 101%; viability, T/C [27]: 125%; viability, T/C [28]: 153%; viability, T/C [29]: 107%; viability, T/C [30]: 114%"
